EC50 data for one compound are collected here from PMC3475186 (Cell, 2012).

This experiment addresses hTPC2 (TPC2; TPCN2; hTPC2-EGFP) (Homo sapiens, UniProt Q8NHX9). Nature of the experiment: whole-endolysosome patch clamp. Type of experiment: cell-based.

Chain of hTPC2 (TPC2; TPCN2; hTPC2-EGFP) (Q8NHX9 whole entry): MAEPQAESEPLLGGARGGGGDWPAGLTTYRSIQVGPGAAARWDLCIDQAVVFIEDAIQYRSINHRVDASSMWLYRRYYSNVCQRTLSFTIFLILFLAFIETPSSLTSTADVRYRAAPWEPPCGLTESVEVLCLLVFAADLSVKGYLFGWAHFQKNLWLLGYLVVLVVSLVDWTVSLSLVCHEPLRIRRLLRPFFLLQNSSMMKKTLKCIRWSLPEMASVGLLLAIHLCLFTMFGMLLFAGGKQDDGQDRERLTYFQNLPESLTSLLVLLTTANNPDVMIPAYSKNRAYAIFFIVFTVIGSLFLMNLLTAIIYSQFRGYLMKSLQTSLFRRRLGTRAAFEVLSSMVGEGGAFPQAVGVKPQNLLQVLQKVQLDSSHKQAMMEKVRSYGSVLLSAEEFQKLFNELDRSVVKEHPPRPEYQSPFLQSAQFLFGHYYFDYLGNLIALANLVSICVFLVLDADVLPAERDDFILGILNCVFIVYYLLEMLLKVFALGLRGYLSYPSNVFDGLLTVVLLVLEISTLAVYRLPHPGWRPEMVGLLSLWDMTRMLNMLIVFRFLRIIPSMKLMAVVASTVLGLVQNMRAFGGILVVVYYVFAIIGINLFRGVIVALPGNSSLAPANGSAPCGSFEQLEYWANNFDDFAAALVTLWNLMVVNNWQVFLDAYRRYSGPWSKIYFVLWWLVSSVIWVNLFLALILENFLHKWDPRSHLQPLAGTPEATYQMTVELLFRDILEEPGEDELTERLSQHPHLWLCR

Compound `CCCCCCCC(=O)OC[C@H](COP(=O)(O)O[C@@H]1[C@H](O)[C@H](OP(=O)(O)O)[C@@H](O)[C@H](OP(=O)(O)O)[C@H]1O)OC(=O)CCCCCCC` [diC8 PI(3,5)P2] came in with an EC50 of 390 ± 94 nM.
